Results taken from patent publication US12616696B2, “Crystalline forms of (p)-3-chloro-4-((3,5-difluoropyridin-2-yl)methoxy)-2′-(2-(2-hydroxypropan-2-yl)pyrimidin-4-yl)-5′,6-dimethyl-2h-[1,4′-bipyridin]-2-one” (ACLARIS THERAPEUTICS, INC., priority 2020, dated 2026).

What was measured:
phospho-HSP27 = assay: Phosphoprotein analysis in PMA-differentiated U937 cells: phospho-Hsp27/total Hsp27; type: cell-based; settings: Homo sapiens, U-937, read-out: pHSP27/Total HSP27 IC50
Method: (§1) The JNK pathway leads to increased inflammation by boosting production of inflammatory cytokines. […] Classical p38 inhibitors block the phosphorylation of downstream substrates of p38 while elevating activity of parallel pathways such as JNK. Evaluation of the impact of different classes of p38 inhibitors on p38 and JNK pathway regulation was carried out using phospho-HSP27 and phosphor-JNK for the two pathways, respectively. Evaluation of the potency and efficacy of p38 inhibitors to impact phosphoprotein levels was carried out using the human U937 cell line. The U937 human pre-monocytic cell line was obtained from the American Type Culture Collection (Rockville, MD). These cells were differentiated to a monocytic/macrophage phenotype as described by Burnette (Burnette et al, (2009). SD0006: a potent, selective and orally available inhibitor of p38 MAP Kinase, Pharmacology 84(1):42-60). Suspension cells (approximately 0.5 million per milliliter in T75 cm^2 tissue culture flasks) were grown in RPMI containing 10% fetal bovine serum (FBS) plus antibiotics. On day one, phorbol 12-myristate 13-acetate (PMA, 20 ng/mL) was added to the culture flask and the cells were incubated overnight at 37° C./5% CO2. The cells were washed on day two by centrifuging and resuspending them in fresh media without PMA. […]

phospho-JNK = assay: Phosphoprotein analysis in PMA-differentiated U937 cells: phospho-JNK/total JNK; type: cell-based; settings: Homo sapiens, U-937, read-out: pJNK/Total JNK EC50
Method: as §1

in vitro = settings: 50 mg, Tmax (time interval where BAmax is recorded)
Method: Test System: The study was performed in the TNO dynamic, multi-compartmental in vitro system of the stomach and small intestine (tiny-TIM). The tiny-TIM system consists of a gastric compartment and one small intestinal compartment (FIG. 8). This compartment is composed of two glass units with a flexible silicone inner wall enclosing the luminal material. The space between the inner and outer walls is filled with water. Peristaltic mixing of the chyme is the result of alternate compression and relaxation of the flexible inner wall. The compartments are connected by peristaltic valve pumps that successively open and close, allowing the chyme to transit over time through the compartments. […] The set-points for gastrointestinal simulation are controlled and monitored by specific computer programs. […]
Filtration of released and dissolved/solubilized drug molecules from the intestinal lumen via a semi-permeable membrane unit (Fresenius plasmaFlux® P1dry) allowed the assessment of the so-called bio-accessible fraction, i.e. the fraction of the drug which is available for small intestinal absorption. […] The collected volume per time period was measured and sub-samples were taken, instantly diluted in 50% Acetonitrile in Milli-q water and stored at 2-10° C., protected from light, until analysis.

physchem = settings: thermodynamic from solid; for solubility: 23 °C; for solubility at 1 h: 40 °C, Solubility at 40° C.

Cc1cnc(-c2ccnc(C(C)(C)O)n2)cc1-n1c(C)cc(OCc2ncc(F)cc2F)c(Cl)c1=O (atropisomer, axis not shown; (P)) [Compound 49a, (P)-3-chloro-4-((3,5-difluoropyridin-2-yl)methoxy)-2′-(2-(2-hydroxypropan-2-yl)pyrimidin-4-yl)-5′,6-dimethyl-2H-[1,4′-bipyridin]-2-one]
IC50 (phospho-HSP27): 1.15 nM | EC50 (phospho-JNK): 117 nM | Tmax (in vitro): 1 to 1.5 h | solubility (physchem; organic solvent or mixture, low solubility at RT): < 10000 µg/mL | solubility (physchem; water, Solubility at RT): < 6000 µg/mL | solubility at 1 h (physchem; organic solvent or mixture): > 9000 µg/mL | solubility at 1 h (physchem; water): < 6000 µg/mL
